Data as given in PMC11350868, “A Novel Bacitracin-like Peptide from Mangrove-Isolated Bacillus paralicheniformis NNS4-3 against MRSA and Its Genomic Insights” (Antibiotics, 2024).
Where two headings read alike, the source gives them in different places.

Target: α-chymotrypsin (Bos taurus, UniProt P00766)
Conditions: α-chymotrypsin 1 mg/mL, AMP 10 µg/mL, agar well diffusion vs MRSA strain 2468, relative to non-treated sample, mean ± SD, triplicate
Method: The AMP was dissolved in sterile purified water and adjusted to a final concentration of 10 µg/mL. The sensitivity of the AMP to temperatures of 60, 80, and 100 °C as well as autoclaving at 121 °C for 15 and 30 min was evaluated. The sensitivity of the AMP to proteolytic enzymes with different digesting characteristics was studied by incubating with a concentration of 1 mg/mL of proteinase K, trypsin, and α-chymotrypsin (Sigma-Aldrich, Warren, MI, USA). Surfactant compatibility of the AMP was examined by exposing the sample to 1% SDS and 1% Triton X-100 (AppliChem GmbH, Darmstadt, Germany). The propensity of the AMP for acid and base hydrolysis was examined by adjusting the pH of the solution to 1.2, 4.5, 6.8, and 7.4. After incubation, the pH of the AMP solution was neutralized to 7.4 before being assessed for antimicrobial activity. Following all treatments, the antibacterial assay using agar well diffusion against the MRSA strain 2468 was conducted in triplicate. The stability profiles are presented as the percentage of the activity relative to the untreated conditions (mean ± SD) and statistical significance was determined by the Student’s t-test at a p-value < 0.05.

CC(C)CC(NC(=O)C(N)CCCCN)C(=O)NC(CC(C)C)C(=O)NC(CCCCN)C(=O)NC(CC(=O)O)C(=O)NC(CC(C)C)C(=O)NC(Cc1ccccc1)C(=O)NC(Cc1c[nH]cn1)C(=O)NC(CC(=O)O)C(=O)NC(CC(N)=O)C(=O)O (single isomer, unassigned) [NNS4-3 AMP]
% Residual Activity (1 h): 96.65 ± 2.14% | % Residual Activity (6 h): 95.15 ± 6.64% | % Residual Activity (12 h): 97.06 ± 0.54%
